Our source for the IC50 values is PubChem BioAssay AID1159563 (GlaxoSmithKline (GSK), 2015).

What is called IC50 is the concentration needed to halve the response being measured.

In this assay the test system is HepG2 cytotoxicity. Put plainly: HepG2 cell cytotoxicity, cytotoxicity control (AID 1159563).

Calls of active or inactive are those of the source. No rule for the calls is given here.

Take `CC1=C(C(=O)Nc2ccc(Cl)cc2)C(c2ccncc2)n2ncc(C(=O)Nc3ccccc3)c2N1` (centres undefined): the IC50 was 79 µM. As to `O=C(CC1(O)C(=O)N(Cc2ccccc2)c2ccc(Br)cc21)c1cccnc1` (centres undefined), the IC50 was 63 µM. As for `Cc1ccc(Nc2nc(N)nc(CNC(c3nc4ccccc4[nH]3)C(C)C)n2)cc1` (centres undefined), the figure is > 100 µM (inactive); as for `O=C(CN(Cc1ccccn1)Cc1ccccn1)NC1Cc2ccccc2C1`, > 160 µM (inactive); as for `CN1CCCN(C(=O)c2ccc(N3CCCC3)cc2Cl)CC1`, > 100 µM (inactive).

Regarding `Cc1nc2c(-c3ncn[nH]3)cc(NC(=O)Cc3ccccc3)cn2c1C`, the concentration for half-maximal inhibition (IC50) is 16 µM.

Take `COc1cnc2ccc(=O)n(CCN3CCC(NC(=O)Cc4ccc(Cl)c(Cl)c4)CC3)c2c1`: the IC50 is 63 µM. Take `COc1ccc(NS(=O)(=O)c2cc(NC(=O)c3ccc([N+](=O)[O-])s3)ccc2OC)cc1`: the IC50 was > 100 µM (inactive). Consider `O=C(Nc1nc2ccccc2[nH]1)c1ccc2nc[nH]c2c1`, for which the concentration for half-maximal inhibition (IC50) is 50 µM.

On to `CC(=O)NC1(c2ccccc2)CCN(CC(=O)Nc2ccccc2-c2ccccc2)CC1`, for which the IC50 is > 100 µM (inactive).

Regarding `O=C(Nc1nc(-c2ccccn2)cs1)C1CCc2ccccc2C1` (centres undefined), the IC50 was 40 µM.

For `N#CN1CC[C@@H](NC(=O)Nc2ccccc2Oc2ccccc2)C1`, the IC50 is 40 µM.

`NC(=O)c1cc(F)ccc1Nc1nc(NC2CCC(O)CC2)ncc1Br` (centres undefined): the IC50 is 50 µM. On to `Cc1nn(C2CCS(=O)(=O)C2)c(C)c1CN(C)C(=O)C=Cc1sc2ccccc2c1Cl` (centres undefined), for which the IC50 was > 100 µM (inactive). Regarding `FC(F)(F)c1cc(C2CCCN(Cc3c[nH]c4ccccc34)C2)nc2ncnn12` (centres undefined), the IC50 is > 100 µM (inactive). In the case of `Cc1nn(C)c(Cl)c1CN(Cc1cccnc1)Cc1ccsc1`, the IC50 was > 100 µM (inactive).

`CNC(=O)C1Cc2ccccc2N1C(=O)Cc1ccc(OC)cc1` (centres undefined): the IC50 was > 100 µM (inactive). Turning to `CNC(=O)Oc1ccc(C(=O)NCc2ccccc2)cc1OC(=O)NC`, the IC50 is > 100 µM (inactive). In the case of `O=C(c1ccc(OCCCc2cnc[nH]2)cc1)C1CC1`, the IC50 is > 100 µM (inactive). On to `CCCNC(=O)Nc1cccc(-c2nc3ncccc3o2)c1`, for which the IC50 was > 100 µM (inactive).

Regarding `Cc1c(C#N)c([N+](=O)[O-])nn1Cc1cccc(Cl)c1Cl`, the concentration for half-maximal inhibition (IC50) was 79 µM.

As to `CC(C)Oc1ccc(C(=O)Nc2ccc(N3CCOCC3)c(Cl)c2)cc1`, the IC50 was 32 µM.

As to `COc1ccc2ncc(F)c(CCN3CC[C@@H](NC(=O)c4cc5c(s4)CCC5)[C@@H](O)C3)c2n1`, the IC50 was 50 µM. As for `OCC1CCCCN1c1cc(-c2ccccn2)nc(Nc2ccccc2)n1` (centres undefined), the figure is 32 µM. As for `CN(C)S(=O)(=O)c1cccc(CSc2nnc(-c3ccc4c(c3)OCO4)o2)c1`, the figure is > 100 µM (inactive); as for `CC(C)c1nn(-c2nc(N)nc(-c3ccccn3)n2)c(N)c1C1CCCCC1`, 20 µM; as for `Cc1nnnn1-c1cccc(C(=O)N2CCC[C@@]3(C)c4ncncc4CCC23)c1` (some centres undefined), > 100 µM (inactive).

Regarding `CN(C)CCOc1ccc(N2CCN(S(=O)(=O)c3ccc(Cl)cc3)CC2)cc1`, the IC50 was 50 µM. As for `CCCCCNC(=O)c1c[nH]c2ccc(S(=O)(=O)N(C)c3ccc(OCC)cc3)cc2c1=O`, the IC50 is > 100 µM (inactive).

Take `Oc1cccnc1-c1n[nH]c(Cc2ccccc2)n1`: the IC50 is 79 µM. For `Cc1ccc(S(=O)(=O)Cn2nnnc2C(c2cccnc2)N2CCN(c3ccccc3)CC2)cc1` (centres undefined), the IC50 is > 100 µM (inactive). Consider `Cc1nc2nc(C)c(Cc3ccc(C(C)C)cc3)c(=O)n2[nH]1`, for which the IC50 is > 100 µM (inactive). Take `COCc1cc(Nc2ccc(Cl)cc2)nc(-c2ccccn2)n1`: the IC50 was 13 µM. With `Cc1nn(-c2nc(N)nc(-c3ccccn3)n2)c(C)c1Cc1ccccc1`, the IC50 is > 100 µM (inactive). Take `Nc1nonc1-c1nc2cncc(C(=O)N3CC[C@H](N)C3)c2n1CC1CC1`: the IC50 is > 100 µM (inactive). As for `CN(CCOc1ccc(Cl)cc1)Cc1nc(N)nc(N(C)C)n1`, the figure is > 100 µM (inactive); as for `CC1CCCN(S(=O)(=O)c2ccc(C(=O)Nc3nc(-c4ccccn4)cs3)cc2)C1` (centres undefined), 40 µM; as for `CCC(CC)C(=O)Nc1ccc(-c2nnc(-c3ccc(OC)cc3)o2)cc1`, > 100 µM (inactive). With `CC(C)(C)C(O)(CCc1ccc(Cl)cc1)Cn1cncn1` (centres undefined), the IC50 is > 100 µM (inactive). As for `O=S(=O)(NCC(c1cccnc1)N1CCN(c2ccccc2F)CC1)c1ccc(F)cc1` (centres undefined), the IC50 was > 100 µM (inactive).

As to `CC(=O)Nc1ccc(Nc2nccc(-c3cnn4ncccc34)n2)cc1C(F)(F)F`, the IC50 was > 100 µM (inactive). As to `O=C(NCC(c1cccs1)N1CCOCC1)c1ccc([N+](=O)[O-])o1` (centres undefined), the IC50 was 20 µM. With `COc1ccc(C(=O)N2CCC(Nc3cccnc3)C2)c(OC)n1` (centres undefined), the IC50 was > 100 µM (inactive). Consider `Cc1cc(C)n(-c2nc(NC(C)C)nc(NC(C)(C)C)n2)n1`, for which the IC50 is > 100 µM (inactive). For `CNc1nc(C)nc(N2CCc3cc(C(=O)NCc4ccc(-c5nccn5C)cc4Cl)ccc32)n1`, the IC50 is 32 µM. Turning to `COc1ccc(S(=O)(=O)NC(C)C)cc1Nc1ncc(-c2cccc(F)c2)cn1`, the IC50 is > 100 µM (inactive). Turning to `Cc1ccc(NC(=O)c2ccnc(N3CCCC3)c2)cc1-c1cc(C(N)=O)ccc1C`, the IC50 was > 100 µM (inactive). In the case of `O=C1CN(C(=O)c2cccc(Nc3ncc(-c4ccc5c(c4)OCO5)cn3)c2)CCN1`, the IC50 was > 130 µM (inactive). As for `CC(=O)Nc1ccc(-c2noc(CC3CCCN(Cc4cccc(F)c4C)C3)n2)cc1` (centres undefined), the figure is > 100 µM (inactive). Consider `Cc1cc(C)nc(N2CCC(N(Cc3cccnc3)C(=O)c3cccc(C#N)c3)CC2)n1`, for which the IC50 is > 100 µM (inactive). Take `CC(C)(C)c1csc(NC(=O)c2ccc([N+](=O)[O-])s2)n1`: the IC50 was 50 µM. On to `CCC(=O)Nc1ccccc1C(=O)Nc1ccccn1`, for which the IC50 is > 100 µM (inactive). On to `COc1ccccc1CNc1cc(C2CC2)nc(-c2nccn2C)n1`, for which the IC50 was 20 µM. As for `CC(C)Nc1nccc(-c2c(-c3ccc(F)cc3)ncn2C2CCOCC2)n1`, the figure is > 100 µM (inactive). In the case of `CC1CN(Cc2ccc(C#N)cc2)CCN1c1ccc(NC(=O)c2ccccc2F)cc1` (centres undefined), the IC50 is > 100 µM (inactive). As to `O=C(Nc1nc(-c2ccccn2)cs1)N1C[C@H]2C[C@@]2(c2ccccc2)C1`, the concentration for half-maximal inhibition (IC50) was 25 µM. Consider `O=C(c1cccc(Nc2ncc(-c3ccc4c(c3)OCO4)cn2)c1)N1CCSC1`, for which the IC50 was 10 µM.

Turning to `CCc1cc(C(=O)Nc2nccn2-c2ccccc2)cs1`, the IC50 is > 100 µM (inactive). As for `c1cc(-c2ncc(-c3ccn[nH]3)s2)ccn1`, the figure is > 100 µM (inactive). As for `Cn1c(CC(=O)NNC(=O)c2ccc3ccccc3n2)nc2ccccc21`, the figure is > 100 µM (inactive); as for `c1ccc(-c2nc(NC3CCCCC3)cc(C3CC3)n2)nc1`, 40 µM.

`c1ccc(CCNCc2cncc3nc(-c4cnccn4)n(C4CCCCC4)c23)cc1`: the IC50 was > 100 µM (inactive). As for `Cc1c(C(=O)NCCCCn2ccnc2)oc2c(C)cccc12`, the figure is 79 µM; as for `Cc1ccccc1NS(=O)(=O)c1ccc2[nH]cc(C(=O)NC3CCCC(C)C3C)c(=O)c2c1` (centres undefined), 40 µM; as for `CCc1cccc(CC)c1-n1c(SCC(=O)NC(=O)NCc2ccco2)nnc1-c1cccnc1`, > 100 µM (inactive). `COc1ccc(C2CC(c3ccccc3Cl)=NN2C(=O)CNC(=O)C2CCCC2)cc1` (centres undefined): the IC50 is > 100 µM (inactive). `O=C(NCCc1csc(-c2cccc(F)c2)n1)c1ccco1`: the IC50 was > 100 µM (inactive). As for `Cc1ccc(C)c(OC2CCN(C(=O)C(C)n3ccnc3)CC2)c1` (centres undefined), the figure is > 100 µM (inactive).

Consider `CCN(CC)S(=O)(=O)c1ccc(Cn2nc(C(=O)Nc3ccncn3)c3ccccc32)cc1`, for which the IC50 is > 100 µM (inactive). As for `O=C(C1CCCCC1)N1CCN(c2nnc(-c3ccccc3)c3ccccc23)CC1`, the IC50 is > 100 µM (inactive). With `CS(=O)(=O)c1ccc(CC(=O)Nc2nc(-c3ccc(Cl)s3)cs2)cc1`, the IC50 is > 100 µM (inactive).

Turning to `COc1cccc(NS(=O)(=O)c2ccc3[nH]cc(C(=O)NCCC(C)C)c(=O)c3c2)c1`, the IC50 is 32 µM.

Turning to `N#Cc1cc(N2CCCC2=O)ccc1Sc1ccccc1CO`, the IC50 is > 100 µM (inactive). Consider `CCCc1cc(C(=O)Nc2ncc(-c3cccc(Br)c3)n2C)n[nH]1`, for which the IC50 was > 100 µM (inactive).

As for `CCOc1cnn(C)c(=O)c1Nc1ccc(C(=O)NCc2ccc(F)cc2)cc1`, the IC50 was > 100 µM (inactive). On to `NC(=O)c1cc(F)ccc1Nc1nc(NC2CCC(O)CC2)ncc1Cl` (centres undefined), for which the IC50 is > 100 µM (inactive). Turning to `O=C(Cn1cnc2c(-c3ccccc3)csc2c1=O)N1CCCCC1`, the IC50 was > 100 µM (inactive). Regarding `C=CCN(Cc1cccs1)C(=O)CSc1nnc(-c2ccc3c(c2)OCO3)o1`, the IC50 is > 100 µM (inactive). For the compound `O=C(CSc1ccc(-c2ccccn2)nn1)Nc1ccc(Cl)cc1`, the IC50 is > 100 µM (inactive). Take `Nc1nc(-c2ccccn2)nc(-n2nc(-c3cccc(C(F)(F)F)c3)cc2N)n1`: the IC50 was 20 µM. On to `CC1(C)CCC(=Cc2ccc(Cl)cc2)CC1(O)Cn1ccnc1` (centres undefined), for which the IC50 is 50 µM.

`COCc1cc(Nc2ccccc2)nc(-c2ccccn2)n1`: the IC50 was 100 µM. Turning to `CC(C)C[C@H](NC(=O)c1csc(-c2cccs2)n1)C(=O)NC1(C#N)CC1`, the IC50 was > 100 µM (inactive).

Regarding `COCCn1c(-c2ccccc2)cnc1NCc1ccccc1OC`, the IC50 was 20 µM. As for `COc1cccc(C(=O)[C@H]2C[C@@H]2CN(Cc2ccccn2)Cc2ccccn2)c1`, the IC50 is > 100 µM (inactive). Consider `COc1ccc(C(=O)NC2CCN(CCn3c(=O)ccc4ncc(F)cc43)CC2)cc1Cl`, for which the IC50 was > 100 µM (inactive). In the case of `CCCCN(C(=O)c1ccc(NC(=O)C(C)C)cc1)c1ccccc1`, the IC50 is > 100 µM (inactive). On to `CCOc1ccccc1C(=O)Nc1nnc(-c2ccc3c(c2)OCO3)s1`, for which the IC50 is > 100 µM (inactive). As for `CCS(=O)(=O)c1cccc(C(=O)Nc2nc(-c3ccccn3)cs2)c1`, the figure is 25 µM.
